According to patent publication US7193044B1, “Compounds and methods for regulating apoptosis, and methods of making and screening for compounds that regulate apoptosis” (Immunogen, Inc., priority 2000, dated 2007):
Entries after “also recorded” stand apart in the source; their conditions may differ. Values belong to the compound of their own block, whether it stands above or below them. Non-standard residues stand in square brackets, D forms with d. No end group written: not given here. pS = N[C@@H](COP(=O)(O)O)C(=O)O

How the values were obtained:
Akt = Akt activation in HeLa cells (anti-phospho-S473 Akt western blot); type: cell-based, human; details: serum-starved HeLa cells, pretreatment then EGF
Source text: FIG. 10(B) is a series of western blots. Serum-starved HeLa cells expressing HA-BAD S155A, were pretreated with a buffer control (lanes 1 and 2), AG1478 (“AG”) (lane 3), Wortmannin (“Wm”) (lane 4), or H89 (lane 5). The cell cultures were then stimulated with a buffer control (lane 1) or EGF (lanes 2–5). Whole cell lysates were made from the cultures and the proteins were separated by SDS-PAGE. Blots were probed with either an anti-activated EGF receptor antibody (“activated EGFR”) (panel A), an anti-phospho-S473 Akt antibody (“pS473 Akt”) (panel B), or an anti-phospho-S155 BAD antibody (“pS155 BAD”) (panel D). Reblots were probed with either an anti-Akt antibody (“Akt”) (panel C) or an anti-HA BAD antibody (“HA-BAD”) (panel E).
(§1) To further test whether phosphorylation of Ser155 is dependent on the PI 3-kinase/Akt pathway, HeLa cells were transfected with the mutant HA-BAD S155A and pretreated with Wortmannin, an inhibitor of PI 3-kinase. These cells were then stimulated with epidermal growth factor (EGF), lysed and analyzed by western blot analysis.

[1] = system: BAD Ser155 phosphorylation in HeLa cells; assay: BAD phosphorylation in HeLa cells (western blot band-shift / anti-phospho-Ser155 antibody); type: cell-based, human; details: for induction of band-shift (Ser155 phosphorylation) of HA-BAD S112A/S136A: transfected HeLa cells treated with the agent; for Ser155 phosphorylation following growth factor stimulation: results not shown
Experimental: A mammalian expression vector encoding mutant HA-BAD S155A, derived from the shorter murine BAD of SEQ ID NO:3, was constructed. HA-BAD S155A has an amino acid sequence wherein the serine at a position corresponding to Ser155 is substituted with alanine. A western blot was performed on WCL prepared from cells expressing the shorter murine BAD (SEQ ID NO:3), HA-BAD S112A, HA-BAD S136A, or HA-BAD S155A, and probed with anti-HA antibody.
A western blot analysis, probed with anti-HA antibody, was performed on lysates produced from the Forskolin treated and untreated (control) cells to determine whether Forskolin could induce the phosphorylation BAD or mutant BAD.
HeLa cells transiently expressing HA-BAD, HA-BAD S155A, HA-BAD S112A/S136A, or HA-BAD S112A/S136A/S155A were treated with Forskolin or a buffer control.
The HA-BAD S112A/S136A double mutant was transiently expressed in HeLa cells, and transfected cell cultures were treated with each of the GPCR ligands, individually and as a group. A western blot analysis, probed with anti-HA antibody, was performed on lysates produced from the treated and untreated (negative control) cells. […] Forskolin (FK) and no treatment (−) were positive and negative controls, respectively (FIG. 6(a), […], respectively).
Non-transfected HeLa cells were treated with Forskolin or L-epinephrine, followed by western blot analysis of cell lysates using anti-BAD antibodies.
Transformants were treated with L-epinephrine, then lysed and subjected to anti-HA western blot analysis.
as §1
For immunoprecipitation of all HA-BAD species, 1 μg of the anti-HA antibody was added to the cell lysates, and incubated at 4° C. for one hour. Protein G agarose (Pierce) was then added (50 μl/fraction of 50% slurry) and followed by a one hour incubation at 4° C. Beads were washed with RIPA buffer, boiled in loading buffer (2% SDS, 10% glycerol, 5% β-ME, 60 mM Tris, pH 6.8, 0.002% Bromophenol Blue) and loaded onto polyacrylamide gels. After electrophoresis, proteins were transferred to nitrocellulose membranes, and blots blocked in western wash buffer (40 mM Tris, pH 8.0, 150 mM NaCl, 0.2% NP-40) with 5% BSA for one hour at room temperature. Blots were incubated with primary antibody diluted in western wash buffer with 3% BSA at room temperature for 1–2 hours, washed with western wash buffer and incubated with secondary HRP-coupled antibody diluted in western wash buffer with 1.5% BSA, and washed extensively. Polypeptides were detected with the ECL chemiluminescence according to the manufacturers instructions (Amersham).

BAD phosphorylation = BAD phosphorylation (test system not specified)
Source text: Similarly, inhibitors and activators of protein kinases are known and can be used as therapeutic agents (see, e.g., Levitski, 1994). […] It is preferred that the inhibitors and activators have selective actions on the kinase(s) acting upon the BAD, or fragment of BAD, of the present invention. […] Alternatively, in vivo testing could be done using a number of experimental approaches, and one example, as reported herein, utilizes the endogenous phosphorylation of BAD upon re-addition of IL-3 after withdrawal for two hours. Such standard testing systems could be used to test candidate compounds as inhibitors or activators of BAD phosphorylation.

GST-Bcl-XL = GST-Bcl-XL (Homo sapiens, UniProt Q07817); assay: In vitro competition binding assay (BH3 peptides blocking GST-Bcl-XL binding to immobilized BAK BH3 peptide, ELISA)
Experimental: FIG. 3(B) is a graphical representation of the results of an in vitro competition binding assay. Recombinant GST-Bcl-XL was incubated with a BAD BH3 peptide (residues 143–168 of SEQ ID NO: 2) phosphorylated on Ser155 (“BAD BH3-P”), a BAD BH3 peptide (residues 143–168 of SEQ ID NO: 2) unphosphorylated on Ser155 (“BAD BH3”), or a BAK BH3 peptide (residues 71–89; residues 1–20 of SEQ ID NO: 5) as a positive control, at the indicated concentrations. The reaction mixtures were then added to microtiter plates pre-coated with BAK BH3 peptide. The amount of bound GST-Bcl-XL was determined by ELISA using an anti-GST primary antibody and a horse-radish peroxidase-conjugated anti-mouse IgG secondary antibody with ABTS as substrate.
Whether the addition of a phosphate group on BAD Ser155 interferes with this interaction was tested by measuring the affinity of BAD BH3 peptides for Bcl-XL in an in vitro competition binding assay. Synthetic BAD BH3 peptide encompassing BAD residues 143 to 168, was incubated with recombinant GST-Bcl-XL at the indicated concentrations (FIG. 3(b)). The affinity of the BAD BH3 peptide for GST-Bcl-XL was measured as the ability of the peptide to block subsequent binding of GST-Bcl-XL to a BAK BH3 peptide when the reacted mixture was added to a microtiter plate pre-immobilized with a BAK BH3 peptide, as detected by ELISA (triplicate samples, +/−standard deviation). […]

[2] = system: BAD phosphorylation in Rat-1 cells; assay: BAD phosphorylation in Rat-1 cells (western blot band-shift / anti-phospho-Ser155 antibody); type: cell-based; details: for induction of band-shift of HA-BAD S112A/S136A: transfected Rat-1 fibroblasts
Source text: In the absence of a phospho-Ser155 antibody, it was difficult to conclude that this band-shift was solely the result of the phosphorylation of Ser155. However, it appeared that this response was at least primarily due to the phosphorylation at this site. This was based on the combined evidence, both in vitro and in cells, as described above (FIGS. 1, 2 and 4–7) and the fact that Ser155 is the only site of BAD homologous to the substrate consensus sequence of PKA.
Whether the BAD Ser155 kinase, PKA, is also activated by growth factors, and if so, whether such activation is PI 3-kinase dependent, was investigated. […] Cell lysates were analyzed via western blot analysis, probed using anti-HA antibody. […] However, the magnitude of phosphorylation was weaker and may be more transient, than the effect of Forskolin (FIG. 9(a)). Of note, Ser155 phosphorylation following IGF-1, EGF, or PDGF stimulation was not detected in HeLa cells (results not shown).
It has been documented that Akt kinase activity, the serine kinase shown to phosphorylate BAD Ser136, is induced by growth factors and is dependent on PI 3-kinase activation (Datta et al., 1997; del Peso et al., 1997). In related experiments, Rat-1 cells were pretreated with either the PKA inhibitor H89, or the PI 3-kinase inhibitor Wortmannin (available, e.g., from Sigma, St. Louis, Mo.), followed by stimulation with Forskolin (also available from Sigma) or PDGF. […] This indicated the shift was PKA dependent (FIG. 9(b), lower panel, compare lanes 5 and 6). […] It therefore presumably had no effect on PDGF-induced activation of PI 3-kinase.
To examine whether endogenous BAD is phosphorylated on Ser155 in response to growth factors, serum-starved Rat-1 fibroblasts were stimulated with PDGF. Whole cell lysates were prepared and endogenous BAD was immunoprecipitated. Proteins were separated by SDS-PAGE, and Ser155 phosphorylation was analyzed by Western blot using the phospho-S155 antibody and an anti-BAD antibody.

Sequence of GST-Bcl-XL (Q07817 whole entry, the tested form may be a part): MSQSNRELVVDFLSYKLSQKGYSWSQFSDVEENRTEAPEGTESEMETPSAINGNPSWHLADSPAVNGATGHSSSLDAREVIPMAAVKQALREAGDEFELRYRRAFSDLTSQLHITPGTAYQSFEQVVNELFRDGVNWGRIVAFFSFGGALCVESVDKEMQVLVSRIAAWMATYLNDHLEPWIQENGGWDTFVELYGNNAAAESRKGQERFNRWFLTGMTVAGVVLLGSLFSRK

Compound: COc1cc2ncnc(Nc3cccc(Cl)c3)c2cc1OC [AG1478, reference compound]
effect on EGF-induced activation/phosphorylation of endogenous Akt (Akt): blocked the phosphorylation of both
inhibition of EGF-induced phosphorylation of BAD on Ser155 ([1]; serum-starved HeLa cells transfected with HA-BAD S155A (so in the source), pretreatment then EGF, anti-phospho-S155 blot): blocked the phosphorylation of both

Compound: CNC[C@H](O)c1ccc(O)c(O)c1 [L-epinephrine, reference compound]
induction of band-shift of endogenous BAD ([1]; non-transfected HeLa cells): resulted in a new band-shift
induction of band-shift (Ser155 phosphorylation) of HA-BAD S112A/S136A [1]: induced a significant band-shift; also recorded: resulted in the phosphorylation of this site

Compound: CCCCCCCCCCCCCC(=O)O[C@@H]1[C@@H](C)[C@@]2(O)[C@@H](C=C(CO)C[C@]3(O)C(=O)C(C)=C[C@@H]23)[C@@H]2C(C)(C)[C@]12OC(C)=O [PMA]
effect on BAD phosphorylation (BAD phosphorylation): promotes BAD phosphorylation

Compound: CN[C@@H]1C[C@H]2O[C@@](C)([C@@H]1OC)n1c3ccccc3c3c4c(c5c6ccccc6n2c5c31)C(=O)NC4 [staurosporin]
effect on BAD phosphorylation (BAD phosphorylation): inhibits BAD phosphorylation

Compound: ACTH: adrenocorticotropic hormone, GPCR ligand (SYSMEHFRWGKPVGKKRRPVKVYPNGAEDESAEAFPLEF; Corticotropin; UniProt P01189 138-176, looked up)
induction of band-shift (Ser155 phosphorylation) of HA-BAD S112A/S136A [1]: neither TK (FIG. 6(a), lane 3) nor ACTH (FIG. 6(b), lane 5) alone induces a similar band-shift

reduction of affinity for Bcl-XL (GST-Bcl-XL; BAD BH3 peptide phosphorylated on Ser155): greater than 100 fold
Compound: BAD BH3-P: Synthetic BAD BH3 peptide, residues 143–168 of SEQ ID NO: 2, phosphorylated on Ser155 (AAQRYGRELRRM[pS]DEFEGSFKGLPRP; listed as Mus musculus)

Compound: BAD BH3: Synthetic BAD BH3 peptide, residues 143–168 of SEQ ID NO: 2, unphosphorylated on Ser155 (AAQRYGRELRRMSDEFEGSFKGLPRP; listed as Mus musculus)
affinity of BAD BH3 peptide for Bcl-XL (GST-Bcl-XL; ability to block binding of GST-Bcl-XL to plate-bound BAK BH3 peptide, compared with BAK BH3 control peptide): affinity similar to the BAK BH3 control peptide

Compound: BAD S112A: mutant of shorter murine BAD, serine corresponding to Ser112 substituted with alanine; HA- or GST-tagged
band-shift (phosphorylation) of expressed BAD construct in response to L-epinephrine ([1]; HeLa cells): significant band-shift

Compound: IGF-1: insulin-like growth factor 1
induction of band-shift of HA-BAD S112A/S136A [2]: induced a band-shift
Ser155 phosphorylation following growth factor stimulation ([1]; HeLa cells): not detected

Compound: PDGF
induction of phosphorylation of endogenous BAD on Ser155 ([2]; serum-starved Rat-1 fibroblasts, phospho-S155 antibody): induced the phosphorylation of endogenous BAD on Ser155
induction of band-shift of HA-BAD S112A/S136A [2]: induced a band-shift
Ser155 phosphorylation following growth factor stimulation ([1]; HeLa cells): not detected
